What was measured:
[1] = Compound was tested for inhibition of elastase serine protease to produce one-half maximal enzyme activity.
[2] = Compound was tested for inhibition of carboxypeptidase Y serine protease to produce one-half maximal enzyme activity.
Chymotrypsinogen B = Chymotrypsinogen B (Homo sapiens, UniProt P17538); assay: Compound was tested for inhibition of alpha-chymotrypsin serine protease to produce one-half maximal enzyme activity.
[3] = Compound was tested for inhibition of proteinase K serine protease to produce one-half maximal enzyme activity.

Chymotrypsinogen B, sequence (P17538 34-164 limits assumed, other chains not shown): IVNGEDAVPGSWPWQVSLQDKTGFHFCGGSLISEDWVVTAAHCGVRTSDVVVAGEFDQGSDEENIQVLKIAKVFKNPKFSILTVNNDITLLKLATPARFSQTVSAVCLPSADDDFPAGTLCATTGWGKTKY
Chymotrypsinogen B, sequence (P17538 167-263 limits assumed, other chains not shown): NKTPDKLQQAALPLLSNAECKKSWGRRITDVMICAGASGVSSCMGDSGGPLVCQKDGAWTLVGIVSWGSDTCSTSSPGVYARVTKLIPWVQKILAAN

Inhibition constant [1]: > 1.2 mM
Inhibition constant [2]: 0.3 mM
Inhibition constant (Chymotrypsinogen B): 0.3 mM
Inhibition constant [3]: > 1.2 mM
Structure (SMILES): COC(=O)CN1CC(Cc2ccccc2)(NC(=O)c2ccccc2)C1=O (centres undefined)

— ChEMBL document CHEMBL1152054, “Synthesis and evaluation of a -lactam-containing dipeptide analog as a protease inhibitor” (Bioorg Med Chem Lett, 1996)
